How the values were obtained:
PHA-induced cytokines = PHA-induced cytokines on PBMCs (Example F); format: cell-based, human; conditions: PHA-L instead of anti-CD3/CD28 beads
Method: Cryopreserved human Peripheral Blood Mononuclear cells (PBMCs) from healthy adult donors were obtained from Zen Bio, Inc (Cat No. SER-PBMC-F). Cells were cultured in 96-well plates with lymphocyte media (Cat No. LYMPH-1) and were pre-treated with test materials (≤100 μM) for 2 hours and later co-treated with test materials and anti-CD3/CD28 beads (Thermo-Fisher; Cat No. 11131D) at 1:0.4 PBMC:bead ratio for 24 hours at 37° C. and 5% CO2. After incubation, cell media supernatants were harvested and used to measure cytokine levels (IL-4, IL-5, IL-10) using ELISA kits (BD Biosciences® #555194, #555157; R&D Systems® #DY317). Results were represented as percent of inhibition relative to untreated and anti-CD3/CD28 beads-only treated cells. IC50 values were determined by non-linear regression analysis using the four-parameter logistic equation.
By a similar method, but instead of anti-CD3/CD28 beads (Thermo-Fisher; Cat No. 11131D), compounds A, C, T and E were treated with LPS (Sigma Aldrich, Cat. No. LF4321) to measure inhibition of LPS-induced cytokines, and compounds C and T were treated with PHA-L (Sigma Aldrich, Cat No. 11249738001) to measure inhibition of PHA-induced cytokines.

IL-8 = experiment: Peptidoglycan (PGN)-induced IL-8 on NHEKs; format: cell-based, human; conditions: for IC50: Homo sapiens, NHEK, PGN 10 μg/mL, 24 hours, ELISA, read-out: PGN-NHEK 1L-8 Protein IC50; for PGN-induced IL-8 production: cultured human keratinocytes exposed to peptidoglycan (PGN)
Method: Normal human epidermal keratinocytes (NHEKs) from neonatal donors were obtained from Thermo-Fisher (Cat No. C-001-5C). Cells were cultured in 96-well plates for 24 hours with EpiLife media (Cat No. MEPI500CA) supplemented with keratinocytes growth supplement (Cat No. S0015). On Day 2, media was removed and replaced with supplement-depleted medium for 24 hours. On Day 3, media was removed and cells were pre-treated with test materials (≤1 μM) for 2 hours and later co-treated with test materials and PGN (Sigma Aldrich, Cat No. 77140) at 10 μg/mL and incubated for 24 hours at 37° C. and 5% CO2. PGN is a TLR-2 agonist. After incubation, cell media supernatants were harvested and used to measure pro-inflammatory cytokine levels (IL-8) using ELISA kit (BD Biosciences® #555244). Results were represented as percent of inhibition relative to untreated and PGN-only treated cells. IC50 values were determined by non-linear regression analysis using the four-parameter logistic equation.

[1] = test system: subjects with mild to moderate acne; experiment: 8-week clinical study in subjects with mild to moderate acne; format: in vivo; parameters: scale not given here; conditions: E 1% w/w, BPO 3% w/w, human
Description: Subjects used the assigned product at home for 8 weeks. Subjects returned post baseline at week 2, 4 and 8. At each visit subjects underwent expert clinical grading and test site photography. […] The severity of acne signs and symptoms on the faces of >18 yo subjects were clinically assessed by IGA scale during an 8-week Study period. In addition, UV light mode was utilized to observe porphyrins fluorescence (orange-red dots).

TSLP = experiment: Calcipotriol-induced TSLP in vivo; conditions: CD1 mice, calcipotriol 4 nmol/ear, 24 hours
Description: CD1 mice were topically exposed to 4 nmol/ear Calcipotriol. Five minutes after challenge compounds were applied. Twenty-four hours later, protein samples were extracted from ear skin biopsies and analyzed for TSLP levels by ELISA method. Vehicle for compounds were 60:40 EtOH:H2O (Compound C) or 1:1 EtOH:Acetone (AN2728). Data represents average±S.E. of a representative set from 2 independent experiments (n=6 mice per group). *p value<0.05; **p value≤0.01 by Student t test compared to Calcipotriol+vehicle-only treated animals. ns equals not significant.

C/C(=C\CSC[C@H](NC(=O)COCC(=O)O)C(=O)O)CCCC(C)CCCC(C)CCCC(C)C (some centres unmarked) [Compound T]
inhibition of PHA-induced cytokines (PHA-induced cytokines): did not show significant inhibition

C/C(=C\CSC[C@H](NC(=O)N1CCC[C@H]1C(=O)O)C(=O)O)CCCC(C)CCCC(C)CCCC(C)C (some centres unmarked) [Compound E]
IC50 (IL-8): 250 nM | PGN-induced IL-8 production (IL-8): inhibit IL-8 production | Investigator Global Assesment (IGA) Scale ([1]; 2 week): 2 | Investigator Global Assesment (IGA) Scale ([1]; 4 week): 1 | Investigator Global Assesment (IGA) Scale ([1]; 8 week): 0 | Investigator Global Assesment (IGA) Scale ([1]; Baseline): 3

N#Cc1ccc(Oc2ccc3c(c2)COB3O)cc1 [AN2728, reference compound]
AVG - TSLP (TSLP; topical dose 4.0 μg/ear): 2495.1 pg/6 mm biopsy | TSLP % inhb (TSLP; topical dose 4.0 μg/ear): 51% | AVG - TSLP (TSLP; topical dose 40.0 μg/ear): 2235.3 pg/6 mm biopsy | TSLP % inhb (TSLP; topical dose 40.0 μg/ear): 57% | AVG - TSLP (TSLP; topical dose 400.0 μg/ear): 352.1 pg/6 mm biopsy | TSLP % inhb (TSLP; topical dose 400.0 μg/ear): 102%

C/C(=C\CSCC(NC(=O)N(CC(=O)O)CC(=O)O)C(=O)O)CCCC(C)CCCC(C)CCCC(C)C (centres unmarked) [Compound G]
IC50 (IL-8): 50 nM | PGN-induced IL-8 production (IL-8): inhibit IL-8 production

C/C(=C\CSC[C@H](NC(=O)N(C)CC(=O)O)C(=O)O)CCCC(C)CCCC(C)CCCC(C)C (stereo partly drawn) [Compound C, (2R)-2-{[(carboxymethyl)(methyl)carbamoyl]amino}-3-{[(2E)-3,7,11,15-tetramethylhexadec-2-en-1-yl]sulfanyl}propanoic acid]
IC50 (IL-8): 250 nM | inhibition of PHA-induced cytokines (PHA-induced cytokines): did not show significant inhibition | AVG - TSLP (TSLP; topical dose 4.0 μg/ear): 2753.6 pg/6 mm biopsy | TSLP % inhb (TSLP; topical dose 4.0 μg/ear): 15% | AVG - TSLP (TSLP; topical dose 40.0 μg/ear): 1156.1 pg/6 mm biopsy | TSLP % inhb (TSLP; topical dose 40.0 μg/ear): 74% | AVG - TSLP (TSLP; topical dose 400.0 μg/ear): 759.9 pg/6 mm biopsy | TSLP % inhb (TSLP; topical dose 400.0 μg/ear): 88%

— patent US11802107B2, “Compounds and methods of use” (Signum Biosciences, Inc., priority 2017, dated 2023)
